Consider 22 compounds from patent publication US9981916B2 (Genentech, Inc., priority 2013, dated 2018).

One may read the IC50 as the concentration needed to halve the response being measured. A lower IC50 goes with higher potency.

In the test the target is T1, RORc ligand binding domain (Homo sapiens, UniProt P51449).
T1 construct: host or cells: E. coli
T1 sequence (P51449 269-508 limits assumed): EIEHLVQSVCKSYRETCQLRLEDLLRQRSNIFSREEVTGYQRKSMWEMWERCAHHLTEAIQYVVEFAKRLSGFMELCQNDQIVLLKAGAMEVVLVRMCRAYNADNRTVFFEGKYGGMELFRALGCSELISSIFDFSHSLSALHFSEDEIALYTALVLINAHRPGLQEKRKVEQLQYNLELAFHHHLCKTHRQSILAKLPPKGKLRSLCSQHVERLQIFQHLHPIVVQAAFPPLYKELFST
The test is described as follows: In vitro RORc ligand binding assay (25-[3H]hydroxycholesterol displacement, filter binding). As to conditions: 6 nM 25-[3H]hydroxycholesterol, 0.6 ug/mL RORc receptor, 3 h at 25° C. Here is the method: Example 17: In Vitro RORc Ligand Binding Assay
This assay was used to determine a compound's potency in inhibiting activity of RORc by determining, Kiapp, IC50, or percent inhibition values.
On day of the assay, 100 uL of 0.05% CHAPS (in deionized H2O) was added to all wells of the GFB Unifilter plate and allowed soak for 1 h. A wash buffer of 50 mM HEPES (pH 7.4), 150 mM NaCl, and 5 mM MgCl2 was prepared to wash the filter plate. To prepare an assay buffer, BSA was added to the wash buffer to reach 0.01% and DTT was added to reach 1 mM.
For IC50 mode, 10 mM compound stocks were serially diluted in DMSO with DMSO to give 20× required final concentration in DMSO (15 uL compound+30 uL DMSO). The 20× compound stocks were diluted in DMSO with Assay Buffer 4-fold to reach 5× the final test concentration in 25% DMSO (10 uL compound+30 uL Assay Buffer). Solutions were mixed by aspiration several times with a pipette set on 50 uL volume. For the assay, 10 uL of 5× compound stock solutions in 25% DMSO were added to the assay plate in duplicate.
For two point screening, 10 mM stock compound solutions were diluted in DMSO to obtain 200 uM (20× the high test concentration) and then diluted 10-fold further to reach 20 uM (20× the low test concentration). The 20× stocks were diluted 4-fold with Assay Buffer (10 uL compound+30 uL Assay Buffer) to reach 5× the test concentrations (50 uM and 5 uM) and 10 uL were added to two assay plates for the duplicate wells. With each concentration tested on 2 plates, each set of 80 compounds used 4 assay plates (1 uM and 10 uM, with n=2).
25-hydroxycholesterol (1 uM) was used to determine the level of NSB signal is prepared in DMSO as for compounds above, then diluted in Assay Buffer to give a final concentration of 5 uM. For 25-hydroxycholesterol in 25% DMSO/75% Assay Buffer; 10 uL per well was used for NSB samples. Wells for Total Binding and No Receptor sample determination contained 10 uL of 25% DMSO/75% Assay Buffer per well.
25-[^3H]hydroxycholesterol was diluted in Assay Buffer to obtain 15 nM and vortex to mix. Add 20 uL to all wells to reach 6 nM final concentration in the assay.
Stock receptor solution was diluted in assay buffer to obtain 1.5 ug/mL in Assay Buffer. 20 uL was added to all wells. For No Receptor samples, 20 uL Assay Buffer was substituted for receptor solution.
Assay plates were 96-well polypropylene V-bottom plates. 10 uL of 5× compound in 25% DMSO/75% Assay Buffer was added to Test wells. 10 uL of 25% DMSO/75% Assay Buffer was added to Total Binding or No Receptor wells. 10 uL of 5 uM 25-hydroxycholesterol in 25% DMSO/75% Assay Buffer was added to NSB wells. 20 uL of 15 nM 25-[^3H]hydroxycholesterol prepared in Assay Buffer was added to all wells. 20 uL of 1.5 ug/mL RORc receptor was added to wells (or […] Assay Buffer to No R wells). Following addition to the wells, the plates were incubated 3 h at 25° C.
Using a Packard Filtermate Harvester, the filter plate were washed 4 times following transfer of the incubated samples. Plates were dry-filtered completely (2 h at 50° C. or overnight at room temperature). 50 uL Microscint 0 was added to all wells and read on Topcount protocol Inverted.
Final concentrations were as follows: 50 mM HEPES buffer (pH 7.4); 150 mM NaCl; 1 mM DTT; 5 mM MgCl2; 0.01% BSA; 5% DMSO; 0.6 ug/mL RORc receptor; 6 nM 25-[^3H]hydroxycholesterol. For NSB wells, 1 uM 25-hydroxycholesterol was also present.

For the compound `CC1(C)[C@H]2CC[C@]1(C(=O)N1CCc3cc(S(C)(=O)=O)ccc31)c1nnc(-c3ccccc3F)cc12` (stereo in doubt) [Example 170, ((5R,8R)-3-(2-fluorophenyl)-9,9-dimethyl-5,6,7,8-tetrahydro-5,8-methanocinnolin-8-yl)(5-(methylsulfonyl)indolin-1-yl)methanone], the IC50 was 3.89 µM.

In the case of `COC[C@@]12CC[C@@H](c3cc(-c4c(F)cccc4Cl)nnc31)C2(C)C` [Example 29, (5R,8R)-3-(2-chloro-6-fluorophenyl)-8-(methoxymethyl)-9,9-dimethyl-5,6,7,8-tetrahydro-5,8-methanocinnoline], the IC50 is 0.041 µM.

Compound `CC1(C)[C@H]2CC[C@]1(C(=O)Nc1ccccc1C#N)c1nnc(-c3ccccc3F)cc12` [Example 171, (5R,8R)-N-(2-cyanophenyl)-3-(2-fluorophenyl)-9,9-dimethyl-5,6,7,8-tetrahydro-5,8-methanocinnoline-8-carboxamide] gave an IC50 of 3.38 µM.

Regarding `CC1(C)[C@H]2CC[C@]1(COc1cnccn1)c1nnc(-c3c(F)cccc3F)cc12` [Example 329, (5R,8R)-3-(2,6-difluorophenyl)-9,9-dimethyl-8-((pyrazin-2-yloxy)methyl)-5,6,7,8-tetrahydro-5,8-methanocinnoline], the IC50 was determined as 0.271 µM.

Compound `CC1(C)[C@H]2CC[C@]1(C(=O)N1CC(O)C1)c1nnc(-c3c(F)cccc3F)cc12` [Example 199, ((5R,8R)-3-(2,6-difluorophenyl)-9,9-dimethyl-5,6,7,8-tetrahydro-5,8-methanocinnolin-8-yl)(3-hydroxyazetidin-1-yl)methanone] returned an IC50 of 0.461 µM. Compared with the last compound, the IC50 is about 1.7-fold higher.

The compound `CC1(C)[C@H]2CC[C@]1(N1CCCC1=O)c1nnc(-c3c(F)cccc3F)cc12` [Example 109, 1-[(5R,8R)-3-(2,6-difluorophenyl)-9,9-dimethyl-6,7-dihydro-5,8-methanocinnolin-8(5H)-yl]pyrrolidin-2-one] returned a half-maximal inhibitory concentration (IC50) of 0.201 µM. This IC50 lies about 2.3-fold lower than the previous one.

For the compound `CCNC(=O)N(CC(F)F)C[C@@]12CC[C@@H](c3cc(-c4c(F)cccc4F)nnc31)C2(C)C` [Example 293, 1-(2,2-difluoroethyl)-1-(((5R,8S)-3-(2,6-difluorophenyl)-9,9-dimethyl-5,6,7,8-tetrahydro-5,8-methanocinnolin-8-yl)methyl)-3-ethylurea], the IC50 amounted to 0.042 µM.

The compound `CCN(C[C@@]12CC[C@@H](c3cc(-c4c(F)cccc4F)nnc31)C2(C)C)c1ccccn1` [Example 163, N-(((5R,8S)-3-(2,6-difluorophenyl)-9,9-dimethyl-5,6,7,8-tetrahydro-5,8-methanocinnolin-8-yl)methyl)-N-ethylpyridin-2-amine] displayed a 50% inhibitory concentration (IC50) of 0.006 µM. This IC50 lies about 7-fold lower than the previous one.

The compound `COC(=O)C1CCN(C(=O)[C@]23CC[C@H](c4cc(-c5c(F)cccc5F)nnc42)C3(C)C)C1` (stereo partly drawn) [Example 213, methyl 1-((5S,8S)-3-(2,6-difluorophenyl)-9,9-dimethyl-5,6,7,8-tetrahydro-5,8-methanocinnoline-8-carbonyl)pyrrolidine-3-carboxylate] displayed an IC50 of 0.032 µM.

As to `CC1(C)[C@@H]2C[C@H](F)[C@@]1(C)c1nnc(-c3ccccc3F)cc12` [Example 32, (5S,7S,8R)-7-fluoro-3-(2-fluorophenyl)-8,9,9-trimethyl-5,6,7,8-tetrahydro-5,8-methanocinnoline], the IC50 came out at 0.969 µM.

`COC[C@@]12CC[C@@H](c3cc(-c4c(F)cccc4F)nnc31)C2(C)C` [Example 30, (5R,8R)-3-(2,6-difluorophenyl)-8-(methoxymethyl)-9,9-dimethyl-5,6,7,8-tetrahydro-5,8-methanocinnoline] yielded an IC50 of 0.045 µM.

As to `Cn1nc([C@@]23CC[C@@H](c4cc(-c5c(F)cccc5F)nnc42)C3(C)C)oc1=O` [Example 226, 5-((5R,8R)-3-(2,6-difluorophenyl)-9,9-dimethyl-5,6,7,8-tetrahydro-5,8-methanocinnolin-8-yl)-3-methyl-1,3,4-oxadiazol-2(3H)-one], the half-maximal inhibitory concentration (IC50) was 0.124 µM.

Consider `CC1(C)[C@@H]2CC[C@@]1(C(=O)N1CC3CC1C3)c1nnc(-c3c(F)cccc3F)cc12` [Example 214, 2-azabicyclo[2.1.1]hexan-2-yl((5S,8S)-3-(2,6-difluorophenyl)-9,9-dimethyl-5,6,7,8-tetrahydro-5,8-methanocinnolin-8-yl)methanone], for which the IC50 is 0.22 µM.

With `CC1(C)[C@H]2CC[C@]1(CN(CC(N)=O)CC(F)F)c1nnc(-c3c(F)cccc3F)cc12` [Example 305, 2-((2,2-difluoroethyl)(((5R,8S)-3-(2,6-difluorophenyl)-9,9-dimethyl-5,6,7,8-tetrahydro-5,8-methanocinnolin-8-yl)methyl)amino) acetamide], the IC50 came out at 0.437 µM.

On to `CC1(C)[C@@H]2CC[C@@]1(C(=O)N1CC3COCC3C1)c1nnc(-c3c(F)cccc3F)cc12` (stereo partly drawn) [Example 217, ((5S,8S)-3-(2,6-difluorophenyl)-9,9-dimethyl-5,6,7,8-tetrahydro-5,8-methanocinnolin-8-yl)(tetrahydro-1H-furo[3,4-c]pyrrol-5(3H)-yl)methanone], for which the IC50 turned out to be 0.144 µM.

`CC1(C)[C@H]2CC[C@]1(COc1ccccn1)c1nnc(-c3c(F)cccc3F)cc12` [Example 120, (5R,8R)-3-(2,6-difluorophenyl)-9,9-dimethyl-8-[(pyridin-2-yloxy)methyl]-5,6,7,8-tetrahydro-5,8-methanocinnoline] yielded a half-inhibitory concentration (IC50) of 0.126 µM.

On to `CC1(C)[C@H]2CC[C@]1(c1cocn1)c1nnc(-c3c(F)cccc3F)cc12` [Example 114, (5R,8S)-3-(2,6-difluorophenyl)-9,9-dimethyl-8-(1,3-oxazol-4-yl)-5,6,7,8-tetrahydro-5,8-methanocinnoline], for which the IC50 turned out to be 0.039 µM.

The compound `CNC(=O)[C@@]12CC[C@@H](c3cc(-c4ccccc4F)nnc31)C2(C)C` [Example 178, (5R,8R)-3-(2-fluorophenyl)-N,9,9-trimethyl-5,6,7,8-tetrahydro-5,8-methanocinnoline-8-carboxamide] had an IC50 of 2.05 µM.

With `CC1(C)[C@@H]2CC[C@@]1(C(=O)Nc1ccc(C#N)cn1)c1nnc(-c3ccccc3F)cc12` [Example 128, (5S,8S)-N-(5-cyanopyridin-2-yl)-3-(2-fluorophenyl)-9,9-dimethyl-5,6,7,8-tetrahydro-5,8-methanocinnoline-8-carboxamide], the IC50 is 0.848 µM.

Regarding `CC1(C)CN(C(=O)[C@]23CC[C@H](c4cc(-c5c(F)cccc5F)nnc42)C3(C)C)C1` [Example 74, [(5S,8S)-3-(2,6-difluorophenyl)-9,9-dimethyl-6,7-dihydro-5,8-methanocinnolin-8(5H)-yl](3,3-dimethylazetidin-1-yl)methanone], the IC50 is 0.693 µM.

The compound `CC1(C)[C@@H]2CC[C@@]1(CN1CCNC1=O)c1nnc(-c3ccccc3F)cc12` [Example 34, 1-{[(5S,8R)-3-(2-fluorophenyl)-9,9-dimethyl-6,7-dihydro-5,8-methanocinnolin-8(5H)-yl]methyl}imidazolidin-2-one] yielded an IC50 of 0.245 µM.

Consider `CNC(=O)[C@]12CC[C@H](c3cc(-c4ccccc4F)nnc31)C2(C)C` [Example 334, (5S,8S)-3-(2-fluorophenyl)-N,9,9-trimethyl-5,6,7,8-tetrahydro-5,8-methanocinnoline-8-carboxamide], for which the IC50 was 2.1 µM.
